Our source for the DC50 and EC50 values is patent publication US20250100996A1, “HETEROCYCLOALKYL AND HETEROARYL COMPOUNDS AND PHARMACEUTICAL COMPOSITIONS THAT MODULATE IKZF2” (Plexium, Inc., priority 2021, published 2025).

The target in one assay is T1, IKZF3 (Aiolos) (Homo sapiens, UniProt Q9UKT9).
T1 construct: Leu-Asp junction (codons ctcgac before the linker); mScarlet (behind P2A) (C, cleaved yes); expressed in transfected cells
As to the kind of experiment: IKZF3 reporter degradation assay (HEK 293T IKZF3-mNeonGreen reporter cell line). In kind it is cell-based. The following applies: HEK 293T IKZF3-mNeonGreen reporter, 24 hours incubation. The text has this: (§1) Polycistronic plasmids were constructed for the mammalian expression of fluorescent reporter fusions of human transcription factors IKZF1 (Ikaros), IKZF2 (Helios), and IKZF3 (Aiolos). The respective protein sequences had their C-terminal end joined to a GGGGS linker repeated three times followed by mNeonGreen, P2A sequence, and mScarlet. The DNA sequences of the open reading frames are as follows:
(§2) IKZF1, IKZF2, and IKZF3 constructs were cloned into the UCOE Hygromycin expression vectors (Millipore Sigma). Reporter constructs were transfected using cationic lipid reagents into adherent HEK 293T cells and stable integrants were selected by treatment with 200 μg/mL hygromycin B. Clonal populations were obtained from the population of stable integrants either by limiting dilution or fluorescence activated cell sorting.
(§3) The clonal stable cell lines were maintained under constant 200 μg/mL hygromycin B selection while being passaged for use in the degradation assays. […] The fluorescence intensity of the IKZF1/2/3-mNeonGreen (FITC channel) and mScarlet (PE channel) reporters were routinely analyzed by flow cytometry to confirm consistent expression levels between experiments.
(§4) The IKZF1/IKZF2/IKZF3 degradation assays were carried out by harvesting the HEK 293T reporter cell lines and resuspending the cells in media formulated for reduced background fluorescence (FluoroBrite; Thermo Fisher). The respective cell lines were seeded at a density of 4000 cells/well into black-walled 384-well optical grade assay tissue culture plates. The cells were incubated overnight at 37° C. to allow for attachment to the assay plate. Dilutions of the compounds were prepared in DMSO from 10 mM compound stocks. The assay plates were treated with appropriate concentrations of the compounds by dispensing the DMSO dilutions in quadruplicate wells with an upper limit of 0.5% final DMSO.
(§5) After 24 hours incubation with the compounds, the assay plates were imaged on an ImageXpress Pico microscopy system (cells maintained at 37° C. during imaging) to obtain the fluorescent readouts. The assay plates were imaged in the FITC and Tetramethylrhodamine (TRITC) channels to obtain the mNeonGreen fluorescence intensity (reporter degradation data) and mScarlet fluorescence intensity (for cell segmentation). 293T-IKZF1 and 293T-IKZF3 reporter cell lines were imaged with exposures of 500 milliseconds (ms) for both FITC and TRITC channels, while the 293T-IKZF2 reporter cell line was imaged with exposures of 1000 ms for FITC and 1250 ms for TRITC. The resulting data was analyzed with Cell Reporter Xpress software using the 2-channel cell scoring analysis with a “percent positive” readout. The TRITC channel was selected for the “nuclei” segmentation with a threshold of 20 while the FITC channel was selected for the “Marker 1” segmentation and a threshold of 100 for the IKZF1 and IKZF3 reporter lines. […] The minimum segmentation width was set to 6 micrometers and the maximum segmentation width was set to 15 micrometers for all cell lines. The DC50 calculations were determined by regression to best fit four-parameter logistic curves using GraphPad Prism.

The target in a further assay is T2, IKZF2 (Helios) (Homo sapiens, UniProt Q9UKS7).
T2 construct: Leu-Asp junction (codons ctcgac before the linker); mScarlet (behind P2A) (C, cleaved yes); expressed in transfected cells
Description: IKZF2 reporter degradation assay (HEK 293T IKZF2-mNeonGreen reporter cell line). In kind it is cell-based. Particulars: HEK 293T IKZF2-mNeonGreen reporter, 24 hours incubation.
Excerpt: as §1, §2, §3, §4, §5

Assay [1] has as its target T3, human E3 ligase component cereblon (CRBN) (Homo sapiens, UniProt Q96SW2).
T3 construct: host or cells: HEK293T
Description: Cereblon (CRBN) target engagement, NanoBRET TE Intracellular E3 Ligase Assay in transfected HEK-293T cells. Particulars: read-out: CRBN Binding EC50. As to the method:
HEK293T cells were harvested ca. 75% confluent with trypsin and plated (500,000 cells/well) in a 6-well tissue culture plate in 2 mL of Dulbecco's Modified Eagle Medium (DMEM)^+10% Fetal Bovine Serum (FBS) and incubated overnight at 37° C.
The NanoLuc-CRBN fusion vector (Nluc-CRBN; Promega) contains the coding region of human E3 ligase component cereblon (CRBN) fused to the C-terminus of the NanoLuc luciferase coding region. A mixture of 10 ng Nluc-CRBN and 990 ng DDB1 Expression Vector (Promega) was added to 125 μL Opti-Minimum Essential Medium (Opti-MEM™; Thermo Fisher) along with […] P3000 reagent (Thermo Fisher) in a 1.5 mL epppendorf tube. This solution was added to Lipofectamine 3000 transfection reagent (5 μL; Thermo Fisher) in Opti-MEM (125 μL), mixed well, and incubated for 15 minutes at room temperature. The transfection mixture was added dropwise to cells and incubated overnight at 37° C., 5% CO2. Following transfection, cells were washed once with PBS, and trypsin (250 μL) was added and incubated 30-45 see to dislodge cells. Complete media (2 mL) was added to resuspend cells to form a single cell suspension. Cells were centrifuged at 320×g for 5 min at room temperature, the supernatant was removed, and the cell pellet resuspended in Opti-MEM (3 mL; wash step repeated ×2). After final resuspension in 5 mL Opti-MEM, cells were counted and resuspended at 200,000 cells/mL in Opti-MEM.
Cereblon target engagement was monitored by Bioluminescence Resonance Energy Transfer (BRET) in transfected HEK-293T cells using the NanoBRET TE Intracellular E3 Ligase Assay (Promega). Briefly, 384-well plates (white opaque plates, Corning 3574, low binding surface) were seeded with transfected HEK-293T cells (38 μL/well). 2 μL of 10 μM CRBN tracer (diluted 1:5 in Tracer Dilution Buffer) was added to each well. Plates were centrifuged at 320×g for 1 min at room temperature. Test compounds were added in a 11-point dilution series (typically 10 μM to 100 pM) using a TECAN D300e Digital Dispenser. Plates were shaken for 2 minutes on a microplate shaker to mix compounds. Plates were centrifuged at 320×g for 1 min at room temperature, and subsequently incubated for 2 hours at 37° C.
After incubation, plates were allowed to cool to room temperature for 15 minutes. 20 μL of 3× Complete NanoBRET™ Nano-Glo® Substrate plus Inhibitor Solution (Promega, 1:166 Substrate and 1:500 dilution of Extracellular NanoLuc® Inhibitor diluted in Opti-MEM) were added to each well. Plates were incubated with shaking at room temperature for 3 minutes covered with foil. Plates were read on a CLARIOstar microplate reader (BMG LabTech), measuring at 450 nm (donor emission) and 610 nm (acceptor emission). The IC50 values were determined by regression to best fit four-parameter logistic curves using GraphPad Prism.
(Bioluminescence resonance energy transfer reports proximity on the nanometre scale.)

One may read the DC50 as the concentration at which degradation of the target reaches its halfway point. A higher DC50 goes with degradation only at high concentration. Broadly, the EC50 is the concentration that produces a half-maximal response.

T3 sequence (Q96SW2 whole entry): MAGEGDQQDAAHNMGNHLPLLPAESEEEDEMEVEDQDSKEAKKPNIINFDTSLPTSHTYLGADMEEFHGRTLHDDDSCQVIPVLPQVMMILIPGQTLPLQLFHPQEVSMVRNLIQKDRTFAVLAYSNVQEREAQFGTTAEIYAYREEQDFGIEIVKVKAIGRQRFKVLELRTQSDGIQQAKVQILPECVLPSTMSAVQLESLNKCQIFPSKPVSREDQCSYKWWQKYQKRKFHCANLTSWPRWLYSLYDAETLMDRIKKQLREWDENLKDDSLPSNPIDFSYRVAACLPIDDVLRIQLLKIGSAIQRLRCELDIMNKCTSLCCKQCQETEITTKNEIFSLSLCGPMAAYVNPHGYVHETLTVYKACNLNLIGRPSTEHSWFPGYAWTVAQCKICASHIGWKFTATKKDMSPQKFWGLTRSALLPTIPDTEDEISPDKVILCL
T3 sequence (Q16531 whole entry partner): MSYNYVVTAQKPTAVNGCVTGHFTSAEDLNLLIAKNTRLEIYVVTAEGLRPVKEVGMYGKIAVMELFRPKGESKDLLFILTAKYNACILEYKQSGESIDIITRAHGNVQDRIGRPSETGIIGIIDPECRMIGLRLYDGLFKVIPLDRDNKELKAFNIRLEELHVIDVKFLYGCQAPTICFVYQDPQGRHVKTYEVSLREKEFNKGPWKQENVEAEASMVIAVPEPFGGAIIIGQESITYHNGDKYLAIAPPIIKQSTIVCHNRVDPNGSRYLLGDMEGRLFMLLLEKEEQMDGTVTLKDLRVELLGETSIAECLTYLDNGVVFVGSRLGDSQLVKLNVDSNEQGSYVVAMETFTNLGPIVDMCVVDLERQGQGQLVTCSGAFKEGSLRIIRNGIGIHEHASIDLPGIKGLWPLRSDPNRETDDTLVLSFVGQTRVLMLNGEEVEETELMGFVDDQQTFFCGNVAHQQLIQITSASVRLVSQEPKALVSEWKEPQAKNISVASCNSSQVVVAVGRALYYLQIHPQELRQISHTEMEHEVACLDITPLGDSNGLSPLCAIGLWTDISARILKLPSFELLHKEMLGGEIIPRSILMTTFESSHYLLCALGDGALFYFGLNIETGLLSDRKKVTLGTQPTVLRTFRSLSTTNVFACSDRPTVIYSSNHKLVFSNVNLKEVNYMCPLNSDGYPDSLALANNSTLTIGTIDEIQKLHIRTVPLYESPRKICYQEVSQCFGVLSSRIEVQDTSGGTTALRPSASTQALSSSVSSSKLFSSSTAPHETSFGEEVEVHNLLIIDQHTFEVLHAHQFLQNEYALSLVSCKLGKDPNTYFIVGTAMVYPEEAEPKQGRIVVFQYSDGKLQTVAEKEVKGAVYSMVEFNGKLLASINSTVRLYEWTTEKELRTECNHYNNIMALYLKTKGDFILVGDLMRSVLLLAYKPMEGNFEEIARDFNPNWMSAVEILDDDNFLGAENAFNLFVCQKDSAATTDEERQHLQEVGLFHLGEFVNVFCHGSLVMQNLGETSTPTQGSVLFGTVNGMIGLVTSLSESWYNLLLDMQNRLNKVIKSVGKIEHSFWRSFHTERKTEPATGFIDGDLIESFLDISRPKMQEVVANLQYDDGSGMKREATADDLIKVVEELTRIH
T1 sequence (Q96SW2 whole entry partner): as the sequence (Q96SW2 whole entry) above
T1 sequence (Q16531 whole entry partner): as the sequence (Q16531 whole entry partner) above
T1 sequence (Q9UKT9 whole entry): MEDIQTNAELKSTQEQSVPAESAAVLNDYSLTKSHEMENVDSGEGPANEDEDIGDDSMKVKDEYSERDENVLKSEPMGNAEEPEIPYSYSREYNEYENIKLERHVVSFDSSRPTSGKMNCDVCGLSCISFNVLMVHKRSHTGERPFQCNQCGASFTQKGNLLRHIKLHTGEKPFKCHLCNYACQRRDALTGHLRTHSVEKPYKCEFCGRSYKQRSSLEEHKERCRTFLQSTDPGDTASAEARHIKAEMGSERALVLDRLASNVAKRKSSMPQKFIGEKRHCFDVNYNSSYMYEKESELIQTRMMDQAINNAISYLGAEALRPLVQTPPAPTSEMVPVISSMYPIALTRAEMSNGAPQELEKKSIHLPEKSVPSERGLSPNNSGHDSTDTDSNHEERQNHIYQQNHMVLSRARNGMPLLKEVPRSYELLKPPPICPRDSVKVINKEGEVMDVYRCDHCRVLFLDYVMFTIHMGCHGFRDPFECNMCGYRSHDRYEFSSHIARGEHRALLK
T2 sequence (Q9UKS7 whole entry): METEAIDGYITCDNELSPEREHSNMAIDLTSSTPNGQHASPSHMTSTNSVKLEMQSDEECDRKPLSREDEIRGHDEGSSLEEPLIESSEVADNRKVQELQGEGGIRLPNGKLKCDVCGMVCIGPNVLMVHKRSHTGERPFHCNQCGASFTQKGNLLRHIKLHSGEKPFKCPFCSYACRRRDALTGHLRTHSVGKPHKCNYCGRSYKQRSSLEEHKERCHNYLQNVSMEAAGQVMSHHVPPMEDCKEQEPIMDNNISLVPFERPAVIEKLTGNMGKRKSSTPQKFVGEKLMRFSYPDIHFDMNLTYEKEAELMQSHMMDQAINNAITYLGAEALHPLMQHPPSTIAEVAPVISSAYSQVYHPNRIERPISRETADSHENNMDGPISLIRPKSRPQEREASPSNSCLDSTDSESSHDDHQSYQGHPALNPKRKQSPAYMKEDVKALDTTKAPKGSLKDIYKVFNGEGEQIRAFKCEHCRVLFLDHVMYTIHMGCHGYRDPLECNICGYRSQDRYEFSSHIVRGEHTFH
T2 sequence (Q96SW2 whole entry, further chain): as the sequence (Q96SW2 whole entry) above
T2 sequence (Q16531 whole entry partner): as the sequence (Q16531 whole entry partner) above

Consider `O=C1CCC(N2Cc3cc(O[C@@H]4CCCC[C@@H]4N4CC(c5ncc(Br)cn5)C4)ccc3C2=O)C(=O)N1` (mixture of isomers) [Compound 138-B, Rac-3-(5-(((cis)-2-(3-(5-bromopyrimidin-2-yl)azetidin-1-yl)cyclohexyl)oxy)-1-oxoisoindolin-2-yl)piperidine-2,6-dione], for which the DC50 at IKZF3 (Aiolos) and at IKZF2 (Helios) was over 30000 nM throughout. In addition, the EC50 in assay [1] was determined as 5 nM.
`O=C1CCC(N2Cc3cc(O[C@H]4CCCC[C@@H]4N4CC(c5ncncc5Cl)C4)ccc3C2=O)C(=O)N1` (mixture of isomers) [Compound 140-B, Rac-3-(5-(((trans)-2-(3-(5-chloropyrimidin-4-yl)azetidin-1-yl)cyclohexyl)oxy)-1-oxoisoindolin-2-yl)piperidine-2,6-dione]: the DC50 at IKZF3 (Aiolos) and at IKZF2 (Helios) was over 30000 nM in each case. Moreover, the EC50 in assay [1] came out at 34 nM.
As to `O=C1CCC(N2Cc3cc(O[C@H]4CCCC[C@H]4N4CC(c5ccc(Cl)cn5)C4)ccc3C2=O)C(=O)N1` (mixture of isomers) [Compound 164-B, Rac-3-(5-(((cis)-2-(3-(5-chloropyridin-2-yl)azetidin-1-yl)cyclohexyl)oxy)-1-oxoisoindolin-2-yl)piperidine-2,6-dione], the DC50 on IKZF3 (Aiolos) and on IKZF2 (Helios) was over 30000 nM each time. Also, the EC50 in assay [1] came to 15 nM.
`N#Cc1cc(C2CN([C@H]3CCCC[C@@H]3Oc3ccc4c(c3)CN(C3CCC(=O)NC3=O)C4=O)C2)ccn1` (mixture of isomers) [Compound 180-B, Rac-4-(1-((trans)-2-((2-(2,6-dioxopiperidin-3-yl)-1-oxoisoindolin-5-yl)oxy)cyclohexyl)azetidin-3-yl)picolinonitrile]: the DC50 on IKZF3 (Aiolos) and at IKZF2 (Helios) was over 30000 nM in each case. In addition, in assay [1], the EC50 was 41 nM.
Take `O=C1CCC(N2Cc3cc(O[C@@H]4CCCC[C@@H]4N4CC(c5ncc(C(F)(F)F)cn5)C4)ccc3C2=O)C(=O)N1` (single isomer, unassigned) [Compound 119-B]: the DC50 on IKZF2 (Helios) was over 30000 nM. Moreover, in assay [1], the EC50 was found to be 24 nM.
As to `O=C1CCC(N2Cc3cc(O[C@H]4CCCC[C@H]4N4CC(c5ncc(C(F)(F)F)cn5)C4)ccc3C2=O)C(=O)N1` (single isomer, unassigned) [Compound 121-B], the DC50 on IKZF2 (Helios) was over 30000 nM. In assay [1], the EC50 amounted to 5 nM.
For the compound `O=C1CCC(N2Cc3cc(O[C@H]4CCCC[C@H]4N4CC(c5ncc(C(F)(F)F)cn5)C4)ccc3C2=O)C(=O)N1` (single isomer, unassigned) [Compound 122-B], at IKZF2 (Helios), the DC50 is over 30000 nM. For the same compound, in assay [1], the 50% effective concentration (EC50) turned out to be 13 nM.
`O=C1CCC(N2Cc3cc(O[C@@H]4CCCC[C@H]4N4CC(c5ccc(C(F)(F)F)nc5)C4)ccc3C2=O)C(=O)N1` (single isomer, unassigned) [Compound 124-B]: the 50% degradation concentration (DC50) on IKZF3 (Aiolos) and on IKZF2 (Helios) was over 30000 nM throughout. Besides, the EC50 in assay [1] is 29 nM.
For `O=C1CCC(N2Cc3cc(O[C@@H]4CCCC[C@H]4N4CC(c5ncc(C6CC6)cn5)C4)ccc3C2=O)C(=O)N1` (single isomer, unassigned) [Compound 132-B], the DC50 on IKZF2 (Helios) was over 30000 nM. Also, the EC50 in assay [1] was 3 nM.
The compound `O=C1CCC(N2Cc3cc(O[C@@H]4CCCC[C@H]4N4CC(c5ncc(C6CC6)cn5)C4)ccc3C2=O)C(=O)N1` (single isomer, unassigned) [Compound 133-B] returned a DC50 on IKZF2 (Helios) of over 30000 nM. The EC50 in assay [1] is 10 nM.
As for `O=C1CCC(N2Cc3cc(O[C@H]4CCCC[C@H]4N4CC(c5ccc6ccccc6n5)C4)ccc3C2=O)C(=O)N1` (stereo partly drawn) [Compound 88-B, 3-(1-oxo-5-(((1S,2R)-2-(3-(quinolin-2-yl)azetidin-1-yl)cyclohexyl)oxy)isoindolin-2-yl)piperidine-2,6-dione], the DC50 at IKZF3 (Aiolos) and on IKZF2 (Helios) was over 30000 nM throughout. In assay [1], the EC50 is 10 nM.
With `O=C1CCC(N2Cc3cc(O[C@@H]4CCCC[C@@H]4N4CC(c5cncc(Cl)c5)C4)ccc3C2=O)C(=O)N1` (stereo partly drawn) [Compound 105-B, 3-(5-(((1R,2S)-2-(3-(5-chloropyridin-3-yl)azetidin-1-yl)cyclohexyl)oxy)-1-oxoisoindolin-2-yl)piperidine-2,6-dione], the DC50 at IKZF2 (Helios) was over 30000 nM. The EC50 in assay [1] came to 29 nM.
Consider `O=C1CCC(N2Cc3cc(OC4CCCC4N4CC(c5ccc(C(F)(F)F)nc5)C4)ccc3C2=O)C(=O)N1` (stereo not drawn) [Compound 141-B, 3-(1-oxo-5-((2-(3-(6-(trifluoromethyl)pyridin-3-yl)azetidin-1-yl)cyclopentyl)oxy)isoindolin-2-yl)piperidine-2,6-dione], for which the DC50 on IKZF3 (Aiolos) and at IKZF2 (Helios) was over 30000 nM throughout. Besides, in assay [1], the EC50 was determined as 37 nM.
As to `O=C1NC(=O)C2(N3Cc4cc(OC5CCCC5N5CC(c6ccncc6)C5)ccc4C3=O)CC1C2` (stereo not drawn) [Compound 148-B, 1-(1-oxo-5-((2-(3-(pyridin-4-yl)azetidin-1-yl)cyclopentyl)oxy)isoindolin-2-yl)-3-azabicyclo[3.1.1]heptane-2,4-dione], the DC50 at IKZF3 (Aiolos) and at IKZF2 (Helios) was over 30000 nM each time. Further, the EC50 in assay [1] is over 10000 nM.
For `O=C1CCC(N2Cc3cc(OC4CCCC4N4CC(c5cncc(C(F)(F)F)c5)C4)ccc3C2=O)C(=O)N1` (stereo not drawn) [Compound 154-B, 3-(1-oxo-5-((2-(3-(5-(trifluoromethyl)pyridin-3-yl)azetidin-1-yl)cyclopentyl)oxy)isoindolin-2-yl)piperidine-2,6-dione], the DC50 on IKZF3 (Aiolos) and on IKZF2 (Helios) was over 30000 nM throughout. For the same compound, the EC50 in assay [1] stood at 56 nM.
Regarding `O=C1CCC(N2Cc3cc(OC4CCCCC4N4CC(c5cncc(C(F)(F)F)c5)C4)ccc3C2=O)C(=O)N1` (stereo not drawn) [Compound 178-B, 3-(1-oxo-5-((2-(3-(5-(trifluoromethyl)pyridin-3-yl)azetidin-1-yl)cyclohexyl)oxy)isoindolin-2-yl)piperidine-2,6-dione], the DC50 on IKZF3 (Aiolos) and on IKZF2 (Helios) was over 30000 nM in each case. Also, in assay [1], the EC50 was 39 nM.
